The subject of assay [1] is M. tuberculosis H37Rv. Description: microbe, parasite or virus in culture. The format is cell-based. The following applies: Mycobacterium tuberculosis, read-out: MIC90 MABA.
The subject of assay [2] is M. tuberculosis H37Rv. Description: microbe, parasite or virus in culture. The class given is cell-based. Conditions: Mycobacterium tuberculosis, read-out: MIC90 LORA.

Structures are written as SMILES. Converted amounts (≈) assume the structure as drawn. Read-outs that look alike come from different tables or passages of the source.

Regarding `CO[C@H]1/C=C/O[C@@]2(C)Oc3c(C)c(O)c4c(O)c(c(/C=N/N5CCN(C)CC5)c(O)c4c3C2=O)NC(=O)/C(C)=C\C=C\[C@H](C)[C@H](O)[C@@H](C)[C@@H](O)[C@@H](C)[C@H](OC(C)=O)[C@@H]1C` [Rifampin (RMP), Rifampin], the MIC90 worked out at 0.13 µM (≈ 0.107 µg/mL) in the assay on M. tuberculosis H37Rv [1] and 0.46 µM (≈ 0.379 µg/mL) in the assay with M. tuberculosis H37Rv [2].

The record behind these values is publication PMC5323270 (SLAS discovery, 2016).
